# What was measured:
# barnyardgrass [1] = experiment: Test A pre-/postemergence herbicide test; type: in vivo, Echinochloa crus-galli
# Outline: (§1)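 Visual injury rating on a 0–100 scale (0 no effect, 100 complete control) versus untreated controls, about ten days after treatment in greenhouse. Pre: directed soil spray onto seeded sandy loam. Post: spray to runoff on plants 2–10 cm tall at one- to two-leaf stage.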
# cocklebur = experiment: Test B pre-/postemergence herbicide test; type: in vivo, Xanthium strumarium
# Outline: (§2)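 Herbicidal effect was judged by eye on a 0–100 scale after plants stood 13 to 15 days in the greenhouse following pre- or postemergence treatment with surfactant-containing formulations.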
# pigweed = experiment: Test B pre-/postemergence herbicide test; type: in vivo, Amaranthus retroflexus
# Outline: as §2
# velvetleaf [2] = experiment: Test B pre-/postemergence herbicide test; type: in vivo, Abutilon theophrasti
# Outline: as §2
# [3] = test system: small flower umbrella sedge; experiment: Test B flooded paddy test; type: in vivo, Cyperus difformis; details: 1000 g ai/ha, scale 0 to 100 (0 no effect, 100 complete control)
# Outline: (§3)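 Treated at 2-leaf (paddy) or 1–4-leaf, 2–18 cm (postemergence); greenhouse 13–15 d; visual score vs control, 0 none to 100 complete control; dash = not tested.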
# wheat = experiment: Test B postemergence herbicide test; type: in vivo, Triticum aestivum; parameters: key to Wheat plant response rating: 0 = no effect, 100 = complete control; details: for Wheat plant response rating: postemergence
# Outline: (§4)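 Formulated test chemicals went onto postemergence plants measuring 2 to 18 cm, at one to four leaves. For the paddy assay, species had reached two leaves. Scoring took place 13–15 days later by eye, relative to untreated plants, using 0 for no effect up to 100 for full control.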
# blackgrass = experiment: Test B postemergence herbicide test; type: in vivo, Alopecurus myosuroides
# Outline: as §3
# large crabgrass [4] = experiment: Test A pre-/postemergence herbicide test; type: in vivo, Digitaria sanguinalis
# Outline: as §1
# Surinam grass = experiment: Test B pre-/postemergence herbicide test; type: in vivo, Urochloa decumbens
# Outline: as §2
# barnyardgrass [5] = experiment: Test B pre-/postemergence herbicide test; type: in vivo, Echinochloa crus-galli
# Outline: as §2
# barnyardgrass [6] = experiment: Test B flooded paddy test; type: in vivo, Echinochloa crus-galli; details: 1000 g ai/ha, scale 0 to 100 (0 no effect, 100 complete control)
# Outline: as §3
# giant foxtail [7] = experiment: Test A pre-/postemergence herbicide test; type: in vivo, Setaria faberi
# Outline: as §1
# corn = experiment: Test B pre-/postemergence herbicide test; type: in vivo, Zea mays
# Outline: as §2
# large crabgrass [8] = experiment: Test B pre-/postemergence herbicide test; type: in vivo, Digitaria sanguinalis
# Outline: as §2
# wild oat = experiment: Test B postemergence herbicide test; type: in vivo, Avena fatua
# Outline: as §4
# giant foxtail [9] = experiment: Test B pre-/postemergence herbicide test; type: in vivo, Setaria faberi
# Outline: as §2
# redroot pigweed = experiment: Test A pre-/postemergence herbicide test; type: in vivo, Amaranthus retroflexus
# Outline: as §1
# morningglory [10] = experiment: Test B pre-/postemergence herbicide test; type: in vivo, Ipomoea coccinea
# Outline: as §2
# rice = experiment: Test B flooded paddy test; type: in vivo, Oryza sativa; details: 1000 g ai/ha, scale 0 to 100 (0 no effect, 100 complete control)
# Outline: as §3
# ducksalad = experiment: Test B flooded paddy test; type: in vivo, Heteranthera limosa; details: 1000 g ai/ha, scale 0 to 100 (0 no effect, 100 complete control)
# Outline: as §3
# morningglory [11] = experiment: Test A pre-/postemergence herbicide test; type: in vivo, Ipomoea spp.
# Outline: as §1
# lambsquarters = experiment: Test B pre-/postemergence herbicide test; type: in vivo, Chenopodium album
# Outline: as §2
# velvetleaf [12] = experiment: Test A pre-/postemergence herbicide test; type: in vivo, Abutilon theophrasti
# Outline: as §1
# [13] = Postemergence, 250 g ai/ha, 0 to 100 scale, 0 no effect, 100 complete control
# [14] = Postemergence, 1000 g ai/ha, 0 to 100 scale, 0 no effect, 100 complete control
# [15] = Preemergence, 1000 g ai/ha, visual rating, 0 to 100 scale (0 no effect, 100 complete control)
# [16] = preemergence, 250 g ai/ha, visual injury, 0 to 100 scale (0 no effect, 100 complete control)
# [17] = Postemergence, 125 g ai/ha, scale 0 (no effect) to 100 (complete control)
# [18] = Postemergence, 500 g ai/ha, visual rating after 13 to 15 days, scale 0 (no effect) to 100 (complete control)
# [19] = Preemergence, 500 g ai/ha, scale 0 to 100
# [20] = preemergence, 125 g ai/ha, 0 to 100 scale, 0 is no effect, 100 is complete control
# [21] = Postemergence, 500 g ai/ha, 0 to 100 scale, 0 no effect, 100 complete control
# [22] = Postemergence, 2000 g ai/ha, 0 to 100 scale, 0 no effect, 100 complete control
# [23] = Preemergence, 2000 g ai/ha, visual rating, 0 to 100 scale (0 no effect, 100 complete control)
# [24] = preemergence, 500 g ai/ha, visual injury, 0 to 100 scale (0 no effect, 100 complete control)
# [25] = 125 g ai/ha, 0 = no effect, 100 = complete control, preemergence
# [26] = 125 g ai/ha, visual rating, scale 0 (no effect) to 100 (complete control), postemergence
# [27] = 500 g ai/ha, visual rating, 0 = no effect, 100 = complete control, preemergence
# [28] = postemergence, 500 g ai/ha, scale 0 to 100, 0 is no effect, 100 is complete control
structure (smiles),measurement,setting,value
CCN(CC)C(=O)c1cccc(NC(=O)c2cc(C(C)(C)C)nn2CC(F)(F)F)c1 [Compound 32],Barnyardgrass plant response rating,barnyardgrass [1]; [13],0
same,"Plant response rating, Barnyardgrass",barnyardgrass [1]; [14],0
same,Barnyardgrass plant response rating,barnyardgrass [1]; [15],0
same,Barnyardgrass plant response rating,barnyardgrass [1]; [16],0
same,Cocklebur plant response rating,cocklebur; [17],10
same,"Plant response rating, Cocklebur",cocklebur; [18],20
same,Cocklebur plant response rating,cocklebur; [19],0
same,"Plant response rating, Pigweed",pigweed; [18],50
same,Pigweed plant response rating,pigweed; [19],70
same,"Plant response rating, Pigweed",pigweed; [20],0
same,"Plant response rating, Velvetleaf",velvetleaf [2]; [18],30
same,Velvetleaf plant response rating,velvetleaf [2]; [19],70
same,"Plant response rating, Velvetleaf",velvetleaf [2]; [20],0
same,"Sedge, Umbrella plant response rating","[3]; visual rating, 13 to 15 days",20
same,"Plant response rating, Wheat",wheat; [18],10
same,Blackgrass plant response rating,blackgrass; [17],0
same,"Plant response rating, Blackgrass",blackgrass; [18],0
same,"Crabgrass, Large plant response rating",large crabgrass [4]; [13],0
same,"Plant response rating, Crabgrass, Large",large crabgrass [4]; [14],0
same,"Crabgrass, Large plant response rating",large crabgrass [4]; [15],0
same,"Crabgrass, Large plant response rating",large crabgrass [4]; [16],0
same,"Plant response rating, Surinam Grass",Surinam grass; [18],10
same,Surinam Grass plant response rating,Surinam grass; [19],30
same,"Plant response rating, Surinam Grass",Surinam grass; [20],0
same,Barnyardgrass plant response rating,barnyardgrass [5]; [17],0
same,"Plant response rating, Barnyardgrass",barnyardgrass [5]; [18],10
same,Barnyardgrass plant response rating,barnyardgrass [5]; [19],60
same,Barnyardgrass plant response rating,"barnyardgrass [6]; visual rating, 13 to 15 days",0
same,"Foxtail, Giant plant response rating",giant foxtail [7]; [13],0
same,"Plant response rating, Foxtail, Giant",giant foxtail [7]; [14],0
same,"Foxtail, Giant plant response rating",giant foxtail [7]; [15],0
same,"Foxtail, Giant plant response rating",giant foxtail [7]; [16],0
same,Corn plant response rating,corn; [17],10
same,"Plant response rating, Corn",corn; [18],10
same,Corn plant response rating,corn; [19],0
same,"Crabgrass, Large plant response rating",large crabgrass [8]; [17],0
same,"Plant response rating, Crabgrass, Large",large crabgrass [8]; [18],10
same,"Crabgrass, Large plant response rating",large crabgrass [8]; [19],60
same,"Oat, Wild plant response rating",wild oat; [17],10
same,"Plant response rating, Oat, Wild",wild oat; [18],20
same,"Foxtail, Giant plant response rating",giant foxtail [9]; [17],0
same,"Plant response rating, Foxtail, Giant",giant foxtail [9]; [18],10
same,"Foxtail, Giant plant response rating",giant foxtail [9]; [19],10
same,"Plant response rating, Foxtail, Giant",giant foxtail [9]; [20],0
same,Pigweed plant response rating,redroot pigweed; [13],0
same,"Plant response rating, Pigweed",redroot pigweed; [14],0
same,Pigweed plant response rating,redroot pigweed; [15],0
same,Pigweed plant response rating,redroot pigweed; [16],0
same,Morningglory plant response rating,morningglory [10]; [17],0
same,"Plant response rating, Morningglory",morningglory [10]; [18],0
same,Morningglory plant response rating,morningglory [10]; [19],60
same,"Plant response rating, Morningglory",morningglory [10]; [20],50
same,Rice plant response rating,"rice; visual rating, 13 to 15 days",0
same,Ducksalad plant response rating,"ducksalad; visual rating, 13 to 15 days",0
same,Morningglory plant response rating,morningglory [11]; [13],0
same,"Plant response rating, Morningglory",morningglory [11]; [14],0
same,Morningglory plant response rating,morningglory [11]; [15],0
same,Morningglory plant response rating,morningglory [11]; [16],0
same,Lambsquarters plant response rating,lambsquarters; [17],70
same,"Plant response rating, Lambsquarters",lambsquarters; [18],90
same,Lambsquarters plant response rating,lambsquarters; [19],100
same,"Plant response rating, Lambsquarters",lambsquarters; [20],100
same,Velvetleaf plant response rating,velvetleaf [12]; [13],0
same,"Plant response rating, Velvetleaf",velvetleaf [12]; [14],0
same,Velvetleaf plant response rating,velvetleaf [12]; [15],0
same,Velvetleaf plant response rating,velvetleaf [12]; [16],0
COC(=O)c1cccc(NC(=O)c2cc(C(C)(C)C)nn2C)n1 [Compound 312],Barnyardgrass plant response rating,barnyardgrass [1]; [21],0
same,"Plant response rating, Barnyardgrass",barnyardgrass [1]; [22],0
same,Barnyardgrass plant response rating,barnyardgrass [1]; [23],0
same,Barnyardgrass plant response rating,barnyardgrass [1]; [24],0
same,Cocklebur plant response rating (0 to 100 scale),cocklebur; [25],0
same,Cocklebur plant response rating,cocklebur; [26],0
same,"Plant response rating, Cocklebur",cocklebur; [27],0
same,Cocklebur plant response rating,cocklebur; [28],0
same,Pigweed plant response rating (0 to 100 scale),pigweed; [25],0
same,Pigweed plant response rating,pigweed; [26],0
same,"Plant response rating, Pigweed",pigweed; [27],0
same,Pigweed plant response rating,pigweed; [28],20
same,Velvetleaf plant response rating,velvetleaf [2]; [26],0
same,"Plant response rating, Velvetleaf",velvetleaf [2]; [27],0
same,Velvetleaf plant response rating,velvetleaf [2]; [28],0
same,"Sedge, Umbrella plant response rating",[3],0
same,Wheat plant response rating,"wheat; 125 g ai/ha, visual rating, scale 0 (no effect) to 100 (complete control)",0
same,Wheat plant response rating,"wheat; 500 g ai/ha, scale 0 to 100, 0 is no effect, 100 is complete control",0
same,Blackgrass plant response rating,blackgrass; [26],0
same,Blackgrass plant response rating,blackgrass; [28],0
same,"Crabgrass, Large plant response rating",large crabgrass [4]; [21],0
same,"Plant response rating, Crabgrass, Large",large crabgrass [4]; [22],0
same,"Crabgrass, Large plant response rating",large crabgrass [4]; [23],0
same,"Crabgrass, Large plant response rating",large crabgrass [4]; [24],0
same,Surinam Grass plant response rating (0 to 100 scale),Surinam grass; [25],0
same,Surinam Grass plant response rating,Surinam grass; [26],0
same,"Plant response rating, Surinam Grass",Surinam grass; [27],0
same,Surinam Grass plant response rating,Surinam grass; [28],0
same,Barnyardgrass plant response rating (0 to 100 scale),barnyardgrass [5]; [25],0
same,Barnyardgrass plant response rating,barnyardgrass [5]; [26],0
same,"Plant response rating, Barnyardgrass",barnyardgrass [5]; [27],0
same,Barnyardgrass plant response rating,barnyardgrass [5]; [28],0
same,Barnyardgrass plant response rating,barnyardgrass [6],0
same,"Foxtail, Giant plant response rating",giant foxtail [7]; [21],0
same,"Plant response rating, Foxtail, Giant",giant foxtail [7]; [22],0
same,"Foxtail, Giant plant response rating",giant foxtail [7]; [23],0
same,"Foxtail, Giant plant response rating",giant foxtail [7]; [24],0
same,Corn plant response rating (0 to 100 scale),corn; [25],0
same,Corn plant response rating,corn; [26],0
same,"Plant response rating, Corn",corn; [27],0
same,Corn plant response rating,corn; [28],0
same,"Crabgrass, Large plant response rating (0 to 100 scale)",large crabgrass [8]; [25],0
same,"Crabgrass, Large plant response rating",large crabgrass [8]; [26],0
same,"Plant response rating, Crabgrass, Large",large crabgrass [8]; [27],0
same,"Crabgrass, Large plant response rating",large crabgrass [8]; [28],0
same,"Oat, Wild plant response rating",wild oat; [26],0
same,"Oat, Wild plant response rating",wild oat; [28],0
same,"Foxtail, Giant plant response rating (0 to 100 scale)",giant foxtail [9]; [25],0
same,"Foxtail, Giant plant response rating",giant foxtail [9]; [26],0
same,"Plant response rating, Foxtail, Giant",giant foxtail [9]; [27],0
same,"Foxtail, Giant plant response rating",giant foxtail [9]; [28],0
same,Pigweed plant response rating,redroot pigweed; [21],0
same,"Plant response rating, Pigweed",redroot pigweed; [22],0
same,Pigweed plant response rating,redroot pigweed; [23],0
same,Pigweed plant response rating,redroot pigweed; [24],0
same,Morningglory plant response rating (0 to 100 scale),morningglory [10]; [25],0
same,Morningglory plant response rating,morningglory [10]; [26],0
same,"Plant response rating, Morningglory",morningglory [10]; [27],0
same,Morningglory plant response rating,morningglory [10]; [28],20
same,Rice plant response rating,rice,0
same,Ducksalad plant response rating,ducksalad,0
same,Morningglory plant response rating,morningglory [11]; [21],0
same,"Plant response rating, Morningglory",morningglory [11]; [22],0
same,Morningglory plant response rating,morningglory [11]; [23],0
same,Morningglory plant response rating,morningglory [11]; [24],0
same,Lambsquarters plant response rating (0 to 100 scale),lambsquarters; [25],0
same,Lambsquarters plant response rating,lambsquarters; [26],10
same,"Plant response rating, Lambsquarters",lambsquarters; [27],0
same,Lambsquarters plant response rating,lambsquarters; [28],20
same,Velvetleaf plant response rating,velvetleaf [12]; [21],0
same,"Plant response rating, Velvetleaf",velvetleaf [12]; [22],0
same,Velvetleaf plant response rating,velvetleaf [12]; [23],0
same,Velvetleaf plant response rating,velvetleaf [12]; [24],0

# — patent US20060069132A1, “Azolecarboxamide herbicides” (priority 2004, published 2006)
